# Source: patent publication US8834862B2, “Methods, compositions and devices utilizing stinging cells/capsules for conditioning a tissue prior to delivery of an active agent” (NanoCyte Inc., priority 2005, dated 2014)
# System: blood glucose
# Experiment: Insulin delivery by aiptasia stinging capsule gel, blood glucose in nude mice
# Format: in vivo
# Settings: topical aiptasia stinging capsule gel plus Humolin, blood glucose at 0, 30, 60 and 90 minutes after gel activation, FIG. 3
# Experimental: The potential of the stinging capsule patch to deliver an agent (insulin) into the blood stream was tested with aiptasia capsules.
# Materials—Commercial Insulin—Humolin of EliLilly was tested. Unless otherwise noted, all chemicals were purchased from Sigma (Aldrich).
# Animals—6-9 week old nude mice each weighing 20-30 gr were used.
# Insulin Delivery—Mice were topically applied with the aiptasia stinging capsule gel and Humolin. A few microlitres of blood were drawn from the tail tip prior to insulin application (time 0) and thirty minutes, sixty minutes and ninety minutes following gel activation. Blood glucose concentration was measured using a human glucometer.
# In parallel, and as a positive control, mice were subcutaneously injected with Humolin.
substance,measurement,value
insulin,insulin delivery / blood glucose regulation compared with subcutaneous injection,in a similar manner as subcutaneous injection
